According to PubChem BioAssay (NCI):
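Protocol summary: plate cells (96-well), add compound at 5 concentrations, incubate 48 h, interpolate endpoints linearly. GI50 is the concentration that inhibits growth by half. TGI: concentration producing complete growth inhibition.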

Key:
Assay in all cases: inhibition of tumour cell growth, NCI panel, 48 h
NCI-H226 lung = system: NCI-H226 lung
NCI-H23 lung = system: NCI-H23 lung
NCI-H460 lung = system: NCI-H460 lung
NCI-H522 lung = system: NCI-H522 lung
NCI/ADR-RES ovarian = system: NCI/ADR-RES ovarian
OVCAR-3 ovarian = system: OVCAR-3 ovarian
OVCAR-4 ovarian = system: OVCAR-4 ovarian
OVCAR-5 ovarian = system: OVCAR-5 ovarian
OVCAR-8 ovarian = system: OVCAR-8 ovarian
PC-3 prostate = system: PC-3 prostate
RPMI-8226 leukemia = system: RPMI-8226 leukemia
RXF 393 renal = system: RXF 393 renal
SF-268 CNS = system: SF-268 CNS
SF-295 CNS = system: SF-295 CNS
SF-539 CNS = system: SF-539 CNS
SK-MEL-2 melanoma = system: SK-MEL-2 melanoma
SK-MEL-28 melanoma = system: SK-MEL-28 melanoma
SK-MEL-5 melanoma = system: SK-MEL-5 melanoma
SK-OV-3 ovarian = system: SK-OV-3 ovarian
SN12C renal = system: SN12C renal
SNB-19 CNS = system: SNB-19 CNS
SNB-75 CNS = system: SNB-75 CNS
SR leukemia = system: SR leukemia
SW-620 colon = system: SW-620 colon
T-47D breast = system: T-47D breast
TK-10 renal = system: TK-10 renal
U251 CNS = system: U251 CNS
UACC-257 melanoma = system: UACC-257 melanoma
UACC-62 melanoma = system: UACC-62 melanoma
UO-31 renal = system: UO-31 renal

Q: With `COC(=O)c1c(C(=O)OC)c2n(c1C)[C@@H]([C@@H](C)[C@H]1CC[C@H]3[C@@H]4CCC5=CC(=O)CC[C@]5(C)[C@H]4CC[C@]13C)SC2` as the molecule, how does the TGI (NCI-H226 lung) read?
A: 61.8 µM

Q: And the GI50 (NCI-H23 lung)?
A: 3.79 µM

Q: What about the TGI (NCI-H23 lung) of the same molecule?
A: > 100 µM

Q: And the GI50 (NCI-H460 lung)?
A: 5.25 µM

Q: And the TGI (NCI-H460 lung)?
A: > 100 µM

Q: What about the GI50 (NCI-H522 lung) of the same molecule?
A: 2550 nM

Q: What about the TGI (NCI-H522 lung) of the same molecule?
A: 53.8 µM

Q: What about the GI50 (NCI/ADR-RES ovarian) of the same molecule?
A: 3.13 µM

Q: And the TGI (NCI/ADR-RES ovarian)?
A: > 100 µM

Q: What about the GI50 (OVCAR-3 ovarian) of the same molecule?
A: 5.08 µM

Q: What about the TGI (OVCAR-3 ovarian) of the same molecule?
A: > 100 µM

Q: And the GI50 (OVCAR-4 ovarian)?
A: 3.05 µM

Q: What about the TGI (OVCAR-4 ovarian) of the same molecule?
A: > 100 µM

Q: And the GI50 (OVCAR-5 ovarian)?
A: 4.67 µM

Q: And the TGI (OVCAR-5 ovarian)?
A: > 100 µM

Q: And the GI50 (OVCAR-8 ovarian)?
A: 3.32 µM

Q: What about the TGI (OVCAR-8 ovarian) of the same molecule?
A: > 100 µM

Q: What about the GI50 (PC-3 prostate) of the same molecule?
A: 2310 nM

Q: And the TGI (PC-3 prostate)?
A: > 100 µM

Q: What about the GI50 (RPMI-8226 leukemia) of the same molecule?
A: 1560 nM

Q: What about the TGI (RPMI-8226 leukemia) of the same molecule?
A: > 100 µM

Q: What about the GI50 (RXF 393 renal) of the same molecule?
A: 8.82 µM

Q: What about the TGI (RXF 393 renal) of the same molecule?
A: 52.4 µM

Q: What about the GI50 (SF-268 CNS) of the same molecule?
A: 6.58 µM

Q: And the TGI (SF-268 CNS)?
A: > 100 µM

Q: What about the GI50 (SF-295 CNS) of the same molecule?
A: 2680 nM

Q: What about the TGI (SF-295 CNS) of the same molecule?
A: 27.9 µM

Q: And the GI50 (SF-539 CNS)?
A: 7.07 µM

Q: And the TGI (SF-539 CNS)?
A: 84.1 µM

Q: What about the GI50 (SK-MEL-2 melanoma) of the same molecule?
A: 4.02 µM

Q: What about the TGI (SK-MEL-2 melanoma) of the same molecule?
A: > 100 µM

Q: And the GI50 (SK-MEL-28 melanoma)?
A: 4.34 µM

Q: And the TGI (SK-MEL-28 melanoma)?
A: > 100 µM

Q: What about the GI50 (SK-MEL-5 melanoma) of the same molecule?
A: 1530 nM

Q: What about the TGI (SK-MEL-5 melanoma) of the same molecule?
A: 3.68 µM

Q: What about the GI50 (SK-OV-3 ovarian) of the same molecule?
A: 29.3 µM

Q: And the TGI (SK-OV-3 ovarian)?
A: > 100 µM

Q: What about the GI50 (SN12C renal) of the same molecule?
A: 4.06 µM

Q: And the TGI (SN12C renal)?
A: > 100 µM

Q: And the GI50 (SNB-19 CNS)?
A: 8.15 µM

Q: What about the TGI (SNB-19 CNS) of the same molecule?
A: > 100 µM

Q: And the GI50 (SNB-75 CNS)?
A: 11.3 µM

Q: And the TGI (SNB-75 CNS)?
A: 49.7 µM

Q: And the GI50 (SR leukemia)?
A: 3.5 µM

Q: And the TGI (SR leukemia)?
A: > 100 µM

Q: What about the GI50 (SW-620 colon) of the same molecule?
A: 7.25 µM

Q: What about the TGI (SW-620 colon) of the same molecule?
A: > 100 µM

Q: And the GI50 (T-47D breast)?
A: 2100 nM

Q: What about the TGI (T-47D breast) of the same molecule?
A: > 100 µM

Q: What about the GI50 (TK-10 renal) of the same molecule?
A: 6.34 µM

Q: And the TGI (TK-10 renal)?
A: > 100 µM

Q: And the GI50 (U251 CNS)?
A: 4.56 µM

Q: And the TGI (U251 CNS)?
A: > 100 µM

Q: What about the GI50 (UACC-257 melanoma) of the same molecule?
A: 3.22 µM

Q: And the TGI (UACC-257 melanoma)?
A: > 100 µM

Q: What about the GI50 (UACC-62 melanoma) of the same molecule?
A: 2210 nM

Q: What about the TGI (UACC-62 melanoma) of the same molecule?
A: > 100 µM

Q: What about the GI50 (UO-31 renal) of the same molecule?
A: 2910 nM

Q: What about the TGI (UO-31 renal) of the same molecule?
A: > 100 µM
